BindingDB's records for doi:10.1016/j.bmc.2012.12.010 (Duquesne University, 2013)

Assay: Inhibition of MDR1 (unknown origin) transfected in human SKOV3 cells assessed as growth inhibition after 48 hrs by SRB assay

Compound	IC50 [µM]
CCOc1ccc(N(C)c2nc(N)nc3[nH]c4ccccc4c23)cc1	0.029
CCN(c1ccc(OC)cc1)c1nc(N)nc2[nH]c3ccccc3c12	0.072
